The test system of test [1] is Nippostrongylus brasiliensis. The test can be described thus: Test 1: activity against roundworms in rats, treatment 6 days after infection (patent infection), worm counts 48 hours after treatment. The test is classed as in vivo. As for the experimental part:
Test 1 - Rats were infected with 100 Nippostrongylus brasiliensis larvae each, by the subcutaneous route. After 6 days, when the infection was patent, the rats were randomised and alloted to groups of 10 animals each, ready for treatment. One group was used for each dose level of the test compound and, in each experiment, one group was left untreated as a control. All the rats were killed for post-mortem worm counts 48 hours after treatment. The activity, expressed in terms of the percentage reduction in mean worm load of the treated group compared with the untreated group, is shown in Table I.

Test [2] relates to Nippostrongylus brasiliensis. The test can be described thus: Test 2: activity against roundworms in rats, treatment 24 hours after infection, worm counts 6 days after dosing. The test is classed as in vivo. As for the experimental part: Test 2 -- Rats were infected with 100 Nippostrongylus brasiliensis larvae each, by the subcutaneous route. After 24 hours the rats were randomised and allotted to groups of 5 animals each, ready for treatment. Doses of the test compound were then administered to each group by the oral, subcutaneous and intraperitoneal routes respectively, one group of 10 animals being left untreated as a control. All the rats were killed for post-mortem worm counts 6 days after dosing. The activities, expressed in terms of the percentage reductions in mean worm load of the treated groups or damage to the worms compared with the untreated control group, are given below in Table I.

In test [3] the test system is Nippostrongylus brasiliensis eggs. Kind of test: In vitro activity against roundworms (egg hatching and larvae). In kind it is cell-based. The conditions noted are these: 96 h, tested at 100, 10, 1 and 0.1 μg/ml, inhibited or delayed hatching of eggs, or killed, retarded growth or reduced activity of larvae during 4 days, read-out: M.I.C. (minimum inhibitory concentration). As for the experimental part: Compounds of formula I were tested at concentrations of 100 μg/ml, 10 μg/ml, 1 μg/ml and 0.1 μg/ml in small glass containers. If the compound was not soluble in water, a volatile organic medium, e.g. acetone, chloroform, ethanol or methanol was used. An amount of material appropriate for each final concentration was measured and placed in duplicate test containers and if an organic solvent was used it was allowed to evaporate completely. Nippostrongylus brasiliensis eggs were recovered by saturated saline centrifugal flotation from the faeces of rats heavily infected with third stage larvae six days previously. They were washed several times in water and suspended in water in a suitable concentration. From 25-50 eggs were placed in each container and the final volume was made up by the addition of a very dilute aqueous suspension of mouse faeces which served as the growth medium. The minimum inhibitory concentrations of each compound (M.I.C.), shown in the following Table V was the minimum concentration in μg/ml total liquid volume at which it inhibited or delayed hatching of eggs, or at which it killed, retarded growth or reduced activity of larvae during the 4 days after beginning the test.

[4] abbreviates: Nippostrongylus brasiliensis, po, 48 h, Test 1, 1000 mg/kg oral, read-out: Percentage reduction in N.brasiliensis load.
The mark [5] stands for this setting: Nippostrongylus brasiliensis, 144 h, rats, Test 2, 1000 mg/kg oral, read-out: Percentage reduction in N.brasiliensis load.
[6] abbreviates: Nippostrongylus brasiliensis, ip, 144 h, rats, Test 2, 250 mg/kg intraperitoneal, read-out: Percentage reduction in N.brasiliensis load.
Setting [7] is: Nippostrongylus brasiliensis, sc, 144 h, rats, Test 2, 250 mg/kg subcutaneous, read-out: Percentage reduction in N.brasiliensis load.

SMILES strings stand for the structures. Converted amounts (≈) assume the structure as drawn. Counter-ions that a name gives are not always drawn. Like-named read-outs stand apart in the source and are kept apart here.

As to `CCOC(=O)NC(=S)Nc1ccccc1NC(=O)C(C)N(C)C` (racemic) [1-ethoxycarbonyl-3[2-(1-dimethylaminoethylcarbonylamino)phenyl]thiourea], the values for the inhibition in vivo at 1000 mg/kg in test [1] (setting [4]) and in test [2] (setting [5]) were 97% and 100%, respectively.

As to `CCOCCOC(=O)NC(=S)Nc1ccccc1N` [1-(2-ethoxyethoxycarbonyl)-3-(2-aminophenyl)thiourea], the inhibition in vivo at 1000 mg/kg in test [2] (setting [5]) amounted to 90%. In addition, the worm damage result in test [2] (rats, Test 2, 1000 mg/kg oral) is on record as “worm damage”.

As to `CCCCOC(=O)NC(=S)Nc1ccccc1N` [1-butoxycarbonyl-3-(2-aminophenyl)thiourea], the MIC in test [3] worked out at 1 µg/mL (≈ 3.74 µM).

For `CCOC(=O)NC(=S)Nc1ccc(NC(=O)OC(C)C)cc1NC(C)=O` [1-ethoxycarbonyl-3-(2-acetamido-4-isopropoxycarbonylaminophenyl)thiourea], the inhibition in vivo at 1000 mg/kg in test [2] (setting [5]) came out at 62%.

Consider `CCOC(=O)NC(=S)Nc1ccc(Cl)cc1N` [1-ethoxycarbonyl-3-(2-amino-4-chlorophenyl)thiourea], for which, in test [3], the MIC came to 10 µg/mL (≈ 36.5 µM).

Take `CCCCc1ccc(NC(=S)NC(=O)OCC)c(N)c1` [1-ethoxycarbonyl-3-(2-amino-4-n-butylphenyl)-thiourea]: the MIC in test [3] turned out to be 1 µg/mL (≈ 3.39 µM).

As for `CCCCN(CCCC)CC(=O)Nc1ccccc1NC(=S)NC(=O)OCC` [1-ethoxycarbonyl-3-(2-di-n-butylaminoacetamidophenyl)thiourea hydrochloride], in test [3], the MIC is 0.1 µg/mL. Also, the inhibition in vivo at 1000 mg/kg in test [2] (setting [5]) was 97%.

For `CCOC(=O)NC(=S)Nc1ccccc1NC(=O)CN(CC)CC` [1-ethoxycarbonyl-3-(2-diethylaminoacetamidophenyl)thiourea hydrochloride], the inhibition in vivo at 1000 mg/kg in test [1] (setting [4]) stood at 44%; in test [2] (setting [5]) it was 100%. Also, in test [3], the MIC is 0.1 µg/mL. For the same compound, the inhibition in vivo at 250 mg/kg is 99% in test [2] (setting [6]) and 95% in test [2] (setting [7]).

In the case of `CCOC(=O)NC(=S)Nc1cc(NC(=O)OC(C)C)ccc1NC(=O)CN(C)C` [1-ethoxycarbonyl-3-(2-dimethylaminoacetamido-5-isopropoxycarbonylaminophenyl)-thiourea hydrochloride], the MIC in test [3] was found to be 100 µg/mL. For the same compound, the inhibition in vivo at 1000 mg/kg in test [2] (setting [5]) amounted to 100%. The inhibition in vivo at 250 mg/kg in test [2] (setting [6]) was 50%; in test [2] (setting [7]) it was 60%.

`CCOC(=O)NC(=S)Nc1cc(NC(=O)OC)ccc1NC(=O)CN(C)C` [1-ethoxycarbonyl-3-(2-dimethylaminoacetamido-5-methoxycarbonylaminophenyl)thiourea hydrochloride]: in test [2] (setting [5]), the inhibition in vivo at 1000 mg/kg came out at 100%.

As to `CCOC(=O)NC(=S)Nc1ccccc1NC(=O)CN(C)C` [1-ethoxycarbonyl-3-(2-dimethylaminoacetamidophenyl)thiourea hydrochloride], the inhibition in vivo at 1000 mg/kg stood at 85% in test [1] (setting [4]) and 98% in test [2] (setting [5]). Moreover, the MIC in test [3] is 0.1 µg/mL. For the same compound, the inhibition in vivo at 125 mg/kg in test [2] (Nippostrongylus brasiliensis, ip, 144 h, rats, Test 2, 125 mg/kg intraperitoneal, read-out: Percentage reduction in N.brasiliensis load) was determined as 85%. The inhibition in vivo at 100 mg/kg in test [2] (Nippostrongylus brasiliensis, sc, 144 h, rats, Test 2, 100 mg/kg subcutaneous, read-out: Percentage reduction in N.brasiliensis load) stood at 76%.

In the case of `CCOC(=O)NC(=S)Nc1ccccc1NC(=O)CN1CCOCC1` [1-ethoxycarbonyl-3-(2-morpholinoacetamidophenyl)thiourea hydrochloride], in test [3], the MIC was 0.1 µg/mL. In addition, the inhibition in vivo at 1000 mg/kg in test [2] (setting [5]) was determined as 99%.

As for `CCOC(=O)NC(=S)Nc1ccccc1NC(=O)CN1CCCCC1` [1-ethoxycarbonyl-3-(2-piperidinoacetamidophenyl)thiourea hydrochloride], the inhibition in vivo at 1000 mg/kg in test [1] (setting [4]) was 85%; in test [2] (setting [5]) it was 98%. Further, the MIC in test [3] was 1 µg/mL.

For `CCOC(=O)NC(=S)Nc1ccccc1NC(=O)C[N+](C)(C)C` [1-ethoxycarbonyl-3-(2-trimethylammoniumacetamidophenyl)thiourea iodide], the MIC in test [3] was determined as 0.1 µg/mL. Further, the inhibition in vivo at 1000 mg/kg in test [2] (setting [5]) amounted to 60%. Moreover, the worm damage result in test [2] (rats, Test 2, 1000 mg/kg oral) is given as “worm damage”.

As to `CCCCc1ccc(NC(=O)CN(C)C)c(NC(=S)NC(=O)OCC)c1` [1-ethoxycarbonyl-3-(5-n-butyl-2-dimethylaminoacetamidophenyl)thiourea hydrochloride], the inhibition in vivo at 1000 mg/kg in test [1] (setting [4]) came out at 30%; in test [2] (setting [5]), 88%. For the same compound, the MIC in test [3] was determined as 0.1 µg/mL.

For `CCOC(=O)NC(=S)Nc1ccccc1NC(=O)CN1C[C@@H](C)O[C@@H](C)C1` [1-ethoxycarbonyl-3-[2-(2,6-cis-dimethylmorpholinoacetamido)phenyl]thioureahydrochloride], the MIC in test [3] was found to be 0.1 µg/mL. Further, the inhibition in vivo at 250 mg/kg in test [2] (setting [6]) came out at 93%; in test [2] (setting [7]) it was 95%.

Turning to `CCOC(=O)NC(=S)Nc1ccccc1NC(=O)CN1CCN(C)CC1.Cl` [1-ethoxycarbonyl-3-[2-(4-methylpiperazin-1-ylacetamido)phenyl]thiourea hydrochloride], the worm damage entry in test [1] (Test 1, 1000 mg/kg oral) is listed as “worm damage”. The MIC in test [3] stood at 0.1 µg/mL. For the same compound, in test [2] (setting [5]), the inhibition in vivo at 1000 mg/kg worked out at 100%. The inhibition in vivo at 250 mg/kg is 98% in test [2] (setting [6]) and 93% in test [2] (setting [7]).

`CCOC(=O)NC(=S)Nc1ccccc1NC(=O)CN(C)Cc1ccccc1` [1-ethoxycarbonyl-3-[2-(N-benzyl-N-methylaminoacetamido)-phenyl]thiourea hydrochloride]: the inhibition in vivo at 1000 mg/kg is 50% in test [1] (setting [4]) and 99% in test [2] (setting [5]). In addition, the worm damage result in test [1] (Test 1, 1000 mg/kg oral) is reported as “worm damage”; in test [2] (rats, Test 2, 1000 mg/kg oral), “worm damage”. The MIC in test [3] was 0.1 µg/mL.

Regarding `CCOC(=O)Nc1ccc(NC(=S)NC(=O)OC)c(N)c1` [1-methoxycarbonyl-3-(2-amino-4-ethoxycarbonylaminophenyl)thiourea], in test [3], the MIC turned out to be 10 µg/mL (≈ 32 µM). Further, the inhibition in vivo at 1000 mg/kg in test [2] (setting [5]) worked out at 99%.

Regarding `COC(=O)NC(=S)Nc1ccc(C)cc1N` [1-methoxycarbonyl-3-(2-amino-4-methylphenyl)thiourea], the MIC in test [3] amounted to 100 µg/mL (≈ 418 µM). The inhibition in vivo at 1000 mg/kg in test [2] (setting [5]) came to 97%. Besides, the worm damage entry in test [2] (rats, Test 2, 1000 mg/kg oral) was “worm damage”.

Consider `COC(=O)NC(=S)Nc1ccccc1N` [1-methoxycarbonyl-3-(2-aminophenyl)thiourea hydrochloride], for which the inhibition in vivo at 1000 mg/kg in test [1] (setting [4]) and in test [2] (setting [5]) was 100% each time.

Consider `COC(=O)NC(=S)Nc1ccccc1N.O=[N+]([O-])O` [1-methoxycarbonyl-3-(2-aminophenyl)thiourea nitrate], for which, in test [1] (Test 1, 1000 mg/kg oral), the “Percentage reduction in N.brasiliensis load” value is recorded as 99%. Besides, the inhibition in vivo at 1000 mg/kg in test [2] (Nippostrongylus brasiliensis, po, 144 h, read-out: Percentage reduction in N.brasiliensis load, rats, Test 2, 1000 mg/kg oral) was determined as 99%.

As for `COC(=O)NC(=S)Nc1ccccc1N.Cc1ccc(S(=O)(=O)O)cc1` [1-methoxycarbonyl-3-(2-aminophenyl)thiourea toluene-p-sulphonate], the “Percentage reduction in N.brasiliensis load” value in test [1] (Test 1, 1000 mg/kg oral) was 98%; in test [2] (rats, Test 2, 1000 mg/kg oral), 99%.

As for `COC(=O)NC(=S)Nc1ccc(C(C)=O)cc1N` [1-methoxycarbonyl-3-(4-acetyl-2-aminophenyl)thiourea], the inhibition in vivo at 1000 mg/kg in test [2] (setting [5]) was found to be 73%. For the same compound, in test [2] (rats, Test 2, 1000 mg/kg oral), the worm damage result was “worm damage”.

On to `CCCCc1ccc(NC(=S)NC(=O)OC)c(NC(=O)OCC)c1` [1-methoxycarbonyl-3-(4-n-butyl-2-ethoxycarbonylaminophenyl)thiourea], for which, in test [1] (Nippostrongylus brasiliensis, po, 48 h, Test 1, 500 mg/kg oral, read-out: Percentage reduction in N.brasiliensis load), the inhibition in vivo at 500 mg/kg stood at 40%. The worm damage entry in test [1] (Test 1, 500 mg/kg oral) is on record as “worm damage”. For the same compound, the MIC in test [3] was found to be 0.1 µg/mL (≈ 0.283 µM).

For `COC(=O)NC(=S)Nc1ccccc1NC(=O)C=CC(=O)O` [1-methoxycarbonyl-3-[2-(3-carboxyacrylamido)phenyl]thiourea], the MIC in test [3] was 1 µg/mL (≈ 3.09 µM). Further, the inhibition in vivo at 1000 mg/kg in test [2] (setting [5]) was 99%.

The record behind these values is patent publication US4005217A, “Treatment of helminth infections with substituted phenyl-thiourea derivatives” (May & Baker Limited, priority 1970, dated 1977).
